Measured values taken from ChEMBL document CHEMBL1201862, “PubChem BioAssay data set” (2004).
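96-well plates; 48 h exposure; 5 concentrations. Endpoints by linear interpolation between flanking doses. Not reached: highest tested concentration assigned. Abbreviation: GI50, concentration required for 50% inhibition of growth.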 The source made the active and inactive calls. Cut-off read from the data, not from the text of the source: active = GI50 up to about 1.1 µM and inactive = higher.

What was measured:
Test in all cases: inhibition of tumour cell growth, NCI panel, 48 h
RXF 631 = test system: RXF 631
DMS-114 = test system: DMS-114
DU-145 = test system: DU-145
MDA-MB-435 = test system: MDA-MB-435
PC-3 = test system: PC-3
T47D = test system: T47D
A498 = test system: A498
DLD-1 = test system: DLD-1

CCCOC(=O)CCC(NC(=O)c1ccc(Nc2nc3ccccc3nc2-c2cccs2)cc1)C(=O)OCCC (stereo not drawn)
GI50 (RXF 631): > 100 µM (inactive)

Cc1cccc2c1Sc1ccccc1C2NC(=O)CN(C)C (stereo not drawn)
GI50 (DMS-114): > 100 µM (inactive)

Nc1nc(=S)[nH]c2nc3c(c(-c4ccccc4)c12)CCCC3
GI50 (DU-145): > 100 µM (inactive) | GI50 (MDA-MB-435): > 100 µM (inactive) | GI50 (PC-3): > 100 µM (inactive) | GI50 (T47D): 60.1 µM (inactive)

O=Cc1c(Br)[nH]c2ccccc12
GI50 (A498): > 100 µM (inactive) | GI50 (DLD-1): > 100 µM (inactive)
